Results on 13 compounds are retold here after ChEMBL document CHEMBL1153660, “Synthesis and pharmacological properties of BW315c and other inotropic 2-arylimidazo[1,2-a]pyrazines” (Bioorg Med Chem Lett, 1993).

Activity calls are given as the source filed them. No cut-off for these calls is given here.

For experiment [1], the system named is Canis familiaris. Briefly: Time required for inotropic response at 0.80 mg/kg dose; range 45-60. In kind it is functional, Canis lupus familiaris. To be noted: dose 0.8 mg/kg.
The test system of experiment [2] is Canis familiaris. Briefly: Time required for vasodilator response at 0.80 mg/kg dose; range 2-15. To be noted: dose 0.8 mg/kg. Type of experiment: functional, Canis lupus familiaris.
Experiment [3] is filed under the species Canis familiaris. The experiment can be described thus: 10% increase in heart rate in open chest dogs. Conditions: Canis lupus familiaris. Type of experiment: functional.
For experiment [4], the species on record is Canis familiaris. The experiment can be described thus: 30% decrease in diastolic blood pressure in open chest dogs. In kind it is functional. To be noted: Canis lupus familiaris, Artery.
Experiment [5] has as its system Canis familiaris. The experiment can be described thus: In vivo 50% increase in left ventricular pressure in open chest dogs. Type of experiment: functional. Conditions: Canis lupus familiaris, Heart left ventricle.
For experiment [6], the species on record is Cavia porcellus. The experiment can be described thus: In vitro 50% increase in basal contractile force of paced guinea pig papillary muscle (insoluble). In kind it is functional, organism-based. To be noted: Muscle tissue.
The nature of experiment [7]: Ratio of ED50 (increased ventricular pressure) to ED30 (diastolic blood pressure). Type of experiment: functional, Artery.
The species named for experiment [8] is Cavia porcellus. Briefly: In vitro 50% increase in basal contractile force of paced guinea pig papillary muscle. Type of experiment: functional, Muscle tissue.
The species entered for experiment [9] is Cavia porcellus. Briefly: In vitro 50% increase in basal contractile force of paced guinea pig papillary muscle (inactive). In kind it is functional. Conditions: Muscle tissue.
The test system of experiment [10] is Canis familiaris. The experiment can be described thus: Time required for inotropic response at 0.80 mg/kg dose. Conditions: dose 0.8 mg/kg. Type of experiment: functional, Canis lupus familiaris.
For experiment [11], the system named is Canis familiaris. The experiment can be described thus: Time required for vasodilator response at 0.80 mg/kg dose. To be noted: dose 0.8 mg/kg. In kind it is functional, Canis lupus familiaris.
Experiment [12] relates to Canis familiaris. The experiment can be described thus: Time required for inotropic response at 0.80 mg/kg dose; range 30-45. In kind it is functional, Canis lupus familiaris. Conditions: dose 0.8 mg/kg.
For experiment [13], the system named is Canis familiaris. The experiment can be described thus: Time required for vasodilator response at 0.80 mg/kg dose; range 30-45. Type of experiment: functional, Canis lupus familiaris. To be noted: dose 0.8 mg/kg.
For experiment [14], the system named is Canis familiaris. The experiment can be described thus: Time required for vasodilator response at 0.80 mg/kg dose; range 10-30. To be noted: dose 0.8 mg/kg. Type of experiment: functional, Canis lupus familiaris.
The subject of experiment [15] is Canis familiaris. The experiment can be described thus: Time required for inotropic response at 0.80 mg/kg dose; range 20-30. Type of experiment: functional, Canis lupus familiaris. Conditions: dose 0.8 mg/kg.
Experiment [16] concerns Canis familiaris. Briefly: Time required for vasodilator response at 0.80 mg/kg dose; range 15-30. Type of experiment: functional, Canis lupus familiaris. Conditions: dose 0.8 mg/kg.
A further experiment deals with Phosphodiesterase 3 (Homo sapiens, UniProt Q14432+Q13370). The experiment can be described thus: Concentration of compound required for 50% inhibition of type III cAMP phosphodiesterase from dog ventricles, activity expressed as pIC50. In kind it is protein assay, Canis lupus familiaris.

One may read the ED50 as the midpoint of the dose-response relation. The low end stands for greater potency, the high end for weaker potency. As for `COc1cc(OS(C)(=O)=O)ccc1-c1cn2ccnc(OC)c2n1`, the Duration is listed as 45 min with Canis familiaris [1] and 2 min in the experiment with Canis familiaris [2]. This compound also registered an ED10 in the experiment filed under Canis familiaris [3] of 0.05 mg/kg. In addition, the ED30 in the experiment filed under Canis familiaris [4] is 0.06 mg/kg. The ED50 in the experiment with Canis familiaris [5] amounted to 0.07 mg/kg. In the experiment listed under Cavia porcellus [6], the pA50 result was “Insoluble”. Besides, the Ratio in [7] came out at 1.2.
`COc1cc([S+](C)[O-])ccc1-c1nc2c(OC)nccc2[nH]1` (stereo unspecified) showed an ED50 with Canis familiaris [5] of 0.13 mg/kg. The compound also returned a pA50 in the experiment filed under Cavia porcellus [8] of 3.91.
Turning to `COc1cc(OS(C)(=O)=O)ccc1-c1cn2ccncc2n1`, the pA50 entry in the experiment filed under Cavia porcellus [9] is “inactive”.
Consider `COc1cc(C(N)=O)ccc1-c1cn2ccncc2n1`, for which the Duration with Canis familiaris [10] is on record as over 30 min; in the experiment with Canis familiaris [11] it was under 5 min. The ED10 in the experiment filed under Canis familiaris [3] worked out at 0.02 mg/kg. Also, the ED30 in the experiment filed under Canis familiaris [4] was found to be 0.05 mg/kg. Moreover, the ED50 in the experiment with Canis familiaris [5] was 0.02 mg/kg. The same compound gave a pA50 in the experiment filed under Cavia porcellus [8] of 4.68. The Ratio in experiment [7] is on record as 0.4.
For `COc1cc(OS(C)(=O)=O)ccc1-c1nc2cc[nH]cc-2n1`, in the experiment with Canis familiaris [5], the 50% effect level (ED50) was put at a dose of 0.002 mg/kg. Moreover, the pA50 in the experiment listed under Cavia porcellus [8] is on record as under 5.
Compound `COc1cc(C(N)=O)ccc1-c1nc2cc[nH]cc-2n1` came in with an ED50 with Canis familiaris [5] of 0.01 mg/kg. The pA50 in the experiment filed under Cavia porcellus [8] was 4.43.
For the compound `COc1cc(C(N)=O)ccc1-c1cn2ccnc(OC)c2n1`, the Duration in the experiment on Canis familiaris [12] and with Canis familiaris [13] was 30 min in each case. The same compound returned an ED10 in the experiment filed under Canis familiaris [3] of 0.06 mg/kg. The ED30 in the experiment listed under Canis familiaris [4] was 0.15 mg/kg. In addition, it took a dose of 0.06 mg/kg to reach the 50% effect level with Canis familiaris [5] (ED50). Moreover, the pA50 result in the experiment listed under Cavia porcellus [6] is on record as “Insoluble”. The Ratio in [7] was 0.04.
Take `COc1cc([S+](C)[O-])ccc1-c1nc2cccnc2[nH]1` (stereo unspecified) [SULMAZOLE]: the Duration with Canis familiaris [10] and in the experiment with Canis familiaris [11] was 30 min each time. In the experiment filed under Canis familiaris [3], this compound gave an ED10 of 0.5 mg/kg. In the experiment listed under Canis familiaris [4], this compound gave an ED30 of 1.25 mg/kg. In the experiment with Canis familiaris [5], this compound had an ED50 of 0.8 mg/kg. The pA50 in the experiment listed under Cavia porcellus [8] was 4.7.
Regarding `Cc1[nH]c(=O)c(C#N)cc1-c1ccncc1` [MILRINONE], the Duration with Canis familiaris [1] was 45 min; in the experiment on Canis familiaris [14], 10 min. For the same compound, the ED10 in the experiment filed under Canis familiaris [3] stood at 0.02 mg/kg. In the experiment listed under Canis familiaris [4], this compound had an ED30 of 0.06 mg/kg. The same compound came in with an ED50 in the experiment on Canis familiaris [5] of 0.02 mg/kg. The Ratio in experiment [7] stood at 0.3.
For the compound `COc1cc([S+](C)[O-])ccc1-c1nc2cnccc2[nH]1` (stereo unspecified) [ISOMAZOLE], the results for the Duration in the experiment with Canis familiaris [15] and with Canis familiaris [16] were 20 min and 15 min, respectively. The compound further gave an ED10 in the experiment listed under Canis familiaris [3] of 0.06 mg/kg. The compound further had an ED30 in the experiment filed under Canis familiaris [4] of 0.19 mg/kg. In the experiment with Canis familiaris [5], this compound gave an ED50 of 0.06 mg/kg. For the same compound, in the experiment filed under Cavia porcellus [8], the pA50 was 4.64. Besides, the “Log IC50” value on Phosphodiesterase 3 was -4.5. Further, the Ratio in experiment [7] turned out to be 0.32.
Take `COc1cc([S+](C)[O-])ccc1-c1cn2ccncc2n1` (stereo unspecified): the Duration in the experiment on Canis familiaris [10] is 5 min; in the experiment on Canis familiaris [11], over 90 min. Also, the ED10 in the experiment filed under Canis familiaris [3] came to 0.28 mg/kg. The ED30 in the experiment filed under Canis familiaris [4] was determined as 0.03 mg/kg. In the experiment on Canis familiaris [5], this compound showed an ED50 of 0.75 mg/kg. The compound further came in with a pA50 in the experiment listed under Cavia porcellus [8] of 5.39. The “Log IC50” value on Phosphodiesterase 3 is reported as -5. In addition, the Ratio in [7] was determined as 25.
In the case of `COc1cc([S+](C)[O-])ccc1-c1cn2ccnc(OC)c2n1` (stereo unspecified), the Duration with Canis familiaris [10] was determined as 60 min; in the experiment with Canis familiaris [11], 2 min. In addition, in the experiment filed under Canis familiaris [3], the ED10 amounted to 0.11 mg/kg. Also, the ED30 in the experiment listed under Canis familiaris [4] was 1.17 mg/kg. The compound also displayed an ED50 in the experiment with Canis familiaris [5] of 0.09 mg/kg. Also, the pA50 in the experiment filed under Cavia porcellus [8] is given as 4.82. The “Log IC50” value on Phosphodiesterase 3 is recorded as -4.4. Further, the Ratio in [7] turned out to be 0.08.
Regarding `COc1cc([S+](C)[O-])ccc1-c1cn2cccnc2n1` (stereo unspecified), the ED50 in the experiment with Canis familiaris [5] is 2.4 mg/kg. In the experiment filed under Cavia porcellus [8], the pA50 is recorded as 4.63.
